Data on five compounds can be found in US12723063B2, “GIPR-agonist compounds” (Eli Lilly and Company, priority 2019, dated 2026).

The target in test [1] is T1, human glucose-dependent insulinotropic peptide receptor (GIPR) (Homo sapiens, UniProt P48546).
T1 construct: expressed in transfected cells; host or cells: HEK293
T1 sequence (P48546 22-466): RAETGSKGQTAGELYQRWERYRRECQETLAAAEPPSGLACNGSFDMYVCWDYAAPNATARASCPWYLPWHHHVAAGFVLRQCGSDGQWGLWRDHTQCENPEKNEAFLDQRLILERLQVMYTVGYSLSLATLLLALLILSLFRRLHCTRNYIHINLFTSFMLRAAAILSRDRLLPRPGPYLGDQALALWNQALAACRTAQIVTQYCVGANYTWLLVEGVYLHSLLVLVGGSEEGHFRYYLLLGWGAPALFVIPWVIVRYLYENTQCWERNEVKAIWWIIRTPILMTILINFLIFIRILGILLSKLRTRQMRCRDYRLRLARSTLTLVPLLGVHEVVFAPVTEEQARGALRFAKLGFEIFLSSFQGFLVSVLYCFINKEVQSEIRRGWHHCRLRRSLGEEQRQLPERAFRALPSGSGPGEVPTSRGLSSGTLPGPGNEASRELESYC
In words: cAMP functional assay (HTRF) in HEK293 cells in presence of 0.1% casein. In kind it is cell-based. As to conditions: HEK293 cells expressing human GIPR, geometric mean, read-out: hGIPR cAMP Rel EC50 nM (SEM, n). In general terms: Time-resolved FRET reads energy transfer from a long-lived donor to a nearby acceptor.

Test [2] deals with T2, human GLP-1 receptor (GLP-1R) (Homo sapiens, UniProt P43220).
T2 construct: expressed in transfected cells; host or cells: HEK293
The description is as above. To be noted: HEK293 cells expressing human GLP-1R, geometric mean, read-out: hGLP1R cAMP Rel EC50 nM (SEM, n). In kind it is cell-based.

*1 amine or outer side, *2 acyl side, *3 side chain or, on linkers, in order; H or OH if unused. Where a SMILES comes first, the peptide text is derived from it. Side-chain parts run from the residue outwards. [ ]: non-standard residue; d: D form. The star is where a group is joined. C20 diacid = O=C(O)CCCCCCCCCCCCCCCCCCC(=O)*; γGlu = O=C(O)[C@H](CCC(=O)[*:2])N[*:1]; 4Pal = N[C@@H](Cc1ccncc1)C(=O)O; αMeL = CC(C)C[C@](C)(N)C(=O)O; Iva = CC[C@](C)(N)C(=O)O; AEEA = NCCOCCOCC(=O)O; Aib = CC(C)(N)C(=O)O

T2 sequence (P43220 24-463): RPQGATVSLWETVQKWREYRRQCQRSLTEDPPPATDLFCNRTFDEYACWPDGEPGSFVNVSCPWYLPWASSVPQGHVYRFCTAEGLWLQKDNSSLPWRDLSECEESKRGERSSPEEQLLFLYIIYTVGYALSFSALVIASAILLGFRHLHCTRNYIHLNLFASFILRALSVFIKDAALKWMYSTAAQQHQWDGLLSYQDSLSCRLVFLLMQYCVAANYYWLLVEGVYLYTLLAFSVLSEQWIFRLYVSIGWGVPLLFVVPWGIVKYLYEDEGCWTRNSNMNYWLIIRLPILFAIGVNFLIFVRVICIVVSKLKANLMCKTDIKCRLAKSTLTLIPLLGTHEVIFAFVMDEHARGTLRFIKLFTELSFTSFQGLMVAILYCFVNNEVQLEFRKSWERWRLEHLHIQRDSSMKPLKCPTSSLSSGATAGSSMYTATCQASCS

In general, EC50 refers to the concentration that produces a half-maximal response. In the case of `CC[C@H](C)[C@H](NC(=O)[C@H](CO)NC(=O)[C@H](Cc1ccc(O)cc1)NC(=O)[C@H](CC(=O)O)NC(=O)[C@H](CO)NC(=O)[C@@H](NC(=O)[C@](C)(CC)NC(=O)[C@@H](NC(=O)CNC(=O)[C@H](CCC(=O)O)NC(=O)C(C)(C)NC(=O)[C@@H](N)Cc1ccc(O)cc1)[C@@H](C)O)[C@@H](C)CC)C(=O)N[C@@](C)(CC(C)C)C(=O)N[C@@H](CC(C)C)C(=O)N[C@@H](CC(=O)O)C(=O)N[C@@H](CCCCN)C(=O)N[C@@H](CCCCNC(=O)COCCOCCNC(=O)COCCOCCNC(=O)CC[C@H](NC(=O)CCCCCCCCCCCCCCCCCCC(=O)O)C(=O)O)C(=O)N[C@@H](Cc1c[nH]cn1)C(=O)N[C@@H](CCC(N)=O)C(=O)NC(C)(C)C(=O)N[C@@H](CC(=O)O)C(=O)N[C@@H](Cc1ccccc1)C(=O)N[C@H](C(=O)N[C@@H](CCC(=O)O)C(=O)N[C@@H](Cc1ccncc1)C(=O)N[C@@H](CC(C)C)C(=O)N[C@@H](CC(C)C)C(=O)N[C@@H](C)C(=O)NCC(=O)NCC(=O)N1CCC[C@H]1C(=O)N[C@@H](CO)C(=O)N[C@@H](CO)C(=O)NCC(=O)N[C@@H](C)C(=O)N1CCC[C@H]1C(=O)N1CCC[C@H]1C(=O)N1CCC[C@H]1C(=O)N[C@@H](CO)C(N)=O)C(C)C` [Example 55] (H-Y[Aib]EGT[Iva]ISDYSI[αMeL]LDKK([AEEA-AEEA-γGlu-C20 diacid])HQ[Aib]DFVE[4Pal]LLAGGPSSGAPPPS-NH2), the EC50 was 0.017 nM in test [1] and greater than 5000 nM in test [2].
Regarding `CC[C@H](C)[C@H](NC(=O)[C@H](Cc1ccccc1)NC(=O)[C@@H](NC(=O)CNC(=O)[C@H](CCC(=O)O)NC(=O)C(C)(C)NC(=O)[C@@H](N)Cc1ccc(O)cc1)[C@@H](C)O)C(=O)N[C@@H](CO)C(=O)N[C@@H](CC(=O)O)C(=O)N[C@@H](Cc1ccc(O)cc1)C(=O)N[C@@H](CO)C(=O)N[C@H](C(=O)N[C@@](C)(CC(C)C)C(=O)N[C@@H](CC(C)C)C(=O)N[C@@H](CC(=O)O)C(=O)N[C@@H](CCCCN)C(=O)N[C@@H](CCCCNC(=O)COCCOCCNC(=O)COCCOCCNC(=O)CC[C@H](NC(=O)CCCCCCCCCCCCCCCCCCC(=O)O)C(=O)O)C(=O)N[C@@H](Cc1c[nH]cn1)C(=O)N[C@@H](CCC(N)=O)C(=O)NC(C)(C)C(=O)N[C@@H](CC(=O)O)C(=O)N[C@@](C)(Cc1ccccc1)C(=O)N[C@H](C(=O)N[C@@H](CCC(=O)O)C(=O)N[C@@H](Cc1ccncc1)C(=O)N[C@@H](CC(C)C)C(=O)N[C@@H](CC(C)C)C(=O)N[C@@H](C)C(=O)NCC(=O)NCC(=O)N1CCC[C@H]1C(=O)N[C@@H](CO)C(=O)N[C@@H](CO)C(=O)NCC(=O)N[C@@H](C)C(=O)N1CCC[C@H]1C(=O)N1CCC[C@H]1C(=O)N1CCC[C@H]1C(=O)N[C@@H](CO)C(N)=O)C(C)C)[C@@H](C)CC` [Example 56], the values for the EC50 in test [1] and in test [2] were 0.0169 nM and greater than 5000 nM, respectively.
The matching figures for `CC[C@H](C)[C@H](NC(=O)[C@H](Cc1ccccc1)NC(=O)[C@@H](NC(=O)CNC(=O)[C@H](CCC(=O)O)NC(=O)C(C)(C)NC(=O)[C@@H](N)Cc1ccc(O)cc1)[C@@H](C)O)C(=O)N[C@@H](CO)C(=O)N[C@@H](CC(=O)O)C(=O)N[C@@H](Cc1ccc(O)cc1)C(=O)N[C@@H](CO)C(=O)N[C@H](C(=O)N[C@@](C)(CC(C)C)C(=O)N[C@@H](CC(C)C)C(=O)N[C@@H](CC(=O)O)C(=O)N[C@@H](CCCCN)C(=O)N[C@@H](CCCCNC(=O)COCCOCCNC(=O)COCCOCCNC(=O)CC[C@H](NC(=O)CCCCCCCCCCCCCCCCCCC(=O)O)C(=O)O)C(=O)N[C@@H](Cc1c[nH]cn1)C(=O)N[C@@H](CCC(N)=O)C(=O)NC(C)(C)C(=O)N[C@@H](CCC(=O)O)C(=O)N[C@@H](Cc1ccccc1)C(=O)N[C@H](C(=O)N[C@@H](CCC(=O)O)C(=O)N[C@@H](Cc1ccncc1)C(=O)N[C@@H](CC(C)C)C(=O)N[C@@H](CC(C)C)C(=O)N[C@@H](C)C(=O)N[C@@H](CCC(N)=O)C(=O)NCC(=O)N1CCC[C@H]1C(=O)N[C@@H](CO)C(=O)N[C@@H](CO)C(=O)NCC(=O)N[C@@H](C)C(=O)N1CCC[C@H]1C(=O)N1CCC[C@H]1C(=O)N1CCC[C@H]1C(=O)N[C@@H](CO)C(N)=O)C(C)C)[C@@H](C)CC` [Example 57] (H-Y[Aib]EGTFISDYSI[αMeL]LDKK([AEEA-AEEA-γGlu-C20 diacid])HQ[Aib]EFVE[4Pal]LLAQGPSSGAPPPS-NH2): 0.0177 nM and greater than 5000 nM.
In the case of `CC[C@H](C)[C@H](NC(=O)[C@H](Cc1ccccc1)NC(=O)[C@@H](NC(=O)CNC(=O)[C@H](CCC(=O)O)NC(=O)C(C)(C)NC(=O)[C@@H](N)Cc1ccc(O)cc1)[C@@H](C)O)C(=O)N[C@@H](CO)C(=O)N[C@@H](CC(=O)O)C(=O)N[C@@H](Cc1ccc(O)cc1)C(=O)N[C@@H](CO)C(=O)N[C@H](C(=O)N[C@@](C)(CC(C)C)C(=O)N[C@@H](CC(C)C)C(=O)N[C@@H](CC(=O)O)C(=O)N[C@@H](CCCCN)C(=O)N[C@@H](CCCCNC(=O)COCCOCCNC(=O)COCCOCCNC(=O)CC[C@H](NC(=O)CCCCCCCCCCCCCCCCCCC(=O)O)C(=O)O)C(=O)N[C@@H](Cc1c[nH]cn1)C(=O)N[C@@H](CCC(N)=O)C(=O)NC(C)(C)C(=O)N[C@@H](CCC(=O)O)C(=O)N[C@@H](Cc1ccccc1)C(=O)N[C@H](C(=O)N[C@@H](CCC(=O)O)C(=O)N[C@@H](Cc1ccncc1)C(=O)N[C@@H](CC(C)C)C(=O)N[C@@H](CC(C)C)C(=O)N[C@@H](C)C(=O)N[C@H](C(=O)NCC(=O)N1CCC[C@H]1C(=O)N[C@@H](CO)C(=O)N[C@@H](CO)C(=O)NCC(=O)N[C@@H](C)C(=O)N1CCC[C@H]1C(=O)N1CCC[C@H]1C(=O)N1CCC[C@H]1C(=O)N[C@@H](CO)C(N)=O)[C@@H](C)O)C(C)C)[C@@H](C)CC` [Example 58] (H-Y[Aib]EGTFISDYSI[αMeL]LDKK([AEEA-AEEA-γGlu-C20 diacid])HQ[Aib]EFVE[4Pal]LLATGPSSGAPPPS-NH2), the EC50 was 0.0183 nM in test [1] and greater than 5000 nM in test [2].
Take `CC[C@H](C)[C@H](NC(=O)[C@H](Cc1ccccc1)NC(=O)[C@@H](NC(=O)CNC(=O)[C@H](CCC(=O)O)NC(=O)C(C)(C)NC(=O)[C@@H](N)Cc1ccc(O)cc1)[C@@H](C)O)C(=O)N[C@@H](CO)C(=O)N[C@@H](CC(=O)O)C(=O)N[C@@H](Cc1ccc(O)cc1)C(=O)N[C@@H](CO)C(=O)N[C@H](C(=O)N[C@@](C)(CC(C)C)C(=O)N[C@@H](CC(C)C)C(=O)N[C@@H](CC(=O)O)C(=O)N[C@@H](CCCCN)C(=O)N[C@@H](CCCCNC(=O)COCCOCCNC(=O)COCCOCCNC(=O)CC[C@H](NC(=O)CCCCCCCCCCCCCCCCCCC(=O)O)C(=O)O)C(=O)N[C@@H](Cc1c[nH]cn1)C(=O)N[C@@H](CCC(N)=O)C(=O)NC(C)(C)C(=O)N[C@@H](CCC(=O)O)C(=O)N[C@@H](Cc1ccccc1)C(=O)N[C@H](C(=O)N[C@@H](CCC(=O)O)C(=O)N[C@@H](Cc1ccncc1)C(=O)N[C@@H](CC(C)C)C(=O)N[C@@H](CC(C)C)C(=O)N[C@@H](C)C(=O)N[C@@H](C)C(=O)NCC(=O)N1CCC[C@H]1C(=O)N[C@@H](CO)C(=O)N[C@@H](CO)C(=O)NCC(=O)N[C@@H](C)C(=O)N1CCC[C@H]1C(=O)N1CCC[C@H]1C(=O)N1CCC[C@H]1C(=O)N[C@@H](CO)C(N)=O)C(C)C)[C@@H](C)CC` [Example 59]: the values for the EC50 in test [1] and in test [2] were 0.0202 nM and greater than 5000 nM, respectively.
